Marks after values point to notes of the source that are not given here.
Tested on: photodamaged facial skin
Test: clinical study of topical treatment of photodamaged facial skin, 12 weeks
Assay type: in vivo, human
Settings: for investigator's assessment of overall improvement in skin condition (relative to baseline): 6-point scale (1=excellent improvement to 5=no improvement; 6=worse); for investigator's assessment of overall skin condition: 10 point scale (0=None; 1-3=Mild; 4-6=Moderate; 7-9=Severe); for Mean Improvement from Baseline: TEWL / Mean Improvement from Baseline: Coarse Wrinkles / Mean Improvement from Baseline: Fine Wrinkles / Mean Improvement from Baseline: Mottled Hyperpigmentation / Mean Improvement from Baseline: Overall Skin Condition / Mean Improvement from Baseline: Roughness / Subjects Reporting Improvement from Baseline: Blotchiness / Subjects Reporting Improvement from Baseline: Color / Subjects Reporting Improvement from Baseline: Fine Wrinkles / Subjects Reporting Improvement from Baseline: Texture: 0.10% topical; for Mean Improvement from Baseline: Coarse Wrinkles / Mean Improvement from Baseline: Fine Wrinkles / Mean Improvement from Baseline: Mottled Hyperpigmentation / Mean Improvement from Baseline: Overall Skin Condition / Mean Improvement from Baseline: Roughness: expert evaluation; for Skin Moisture / TEWL: 0.10% in MillCreek Lotion twice daily
Description: A clinical study has been conducted to determine the cosmetic efficacy and subjects' tolerance of topical 6-furfurylamino-9-(2-tetrahydropyranyl)purine (0.10%) applied twice daily for 12 weeks to improve the clinical signs and symptoms of photodamaged facial skin. Forty female volunteer subjects age 40 to 65 with mild to moderate signs of photo damaged facial skin were enroled in the study. Thirty four subjects competed the study; the mean age of subjects competing the study was about 54 years. Subjects were instructed to apply the test product to the entire facial skin twice daily (i.e., early morning and approximately 1 hour before bedtime) for 12 consecutive weeks. Subjects were also instructed that, other than sunscreens or mild cleansers and use of color cosmetics, no other topical skin care products or medications were to be used on the face during the study. The test product comprised 0.1 percent 6-furfurylamino-9-(2-tetrahydropyranyl)purine in MillCreek Lotion as vehicle.
Subjects were assessed at weeks 2, 4, 8, and 12. The treated facial skin was evaluated for clinical signs of skin aging (e.g., coarse and fine wrinkles, roughness, mottled hyperpigmentation) at study entry (baseline) as well as 2, 4, 8 and 12 weeks. The subjects' self-assessment of improvement over baseline (wrinkles, texture, blotchiness, color, and overall improvement) were also obtained. In addition, transepidermal water loss (TEWL) and skin moisture measurements were taken on the cheeks of all subjects.
TEWL refers to the amount of water vapor loss through the stratum corneum. […] TEWL measurements were taken using a TEWL meter (Courage & Khazaka, Köln, Germany) having composed of a probe (containing humidity and temperature sensors) connected to a central processing unit. For each subject, the probe was placed in the center of both cheeks and measurements taken in duplicate.
An indirect measurement of the skin's moisture content was made by measuring changes in the skin's electrical properties. Impedance based capacitance measurements were taken on the skin using a NOVA DPM 9003® (NOVA Technologies, Gloucester, Mass., USA). The instrument performs measurements at varying preselected frequencies (up to 1 MHz) of the applied alternating current. A value directly related to capacitance is determined in arbitrary units; a higher value indicates a greater capacitance which indicates an increased level of moisture at the test site. Measurements in triplicate were taken in the center of both cheeks for each test subject.
At the baseline (Day 0) visit, an investigator evaluated each subject's face for the presence of fine wrinkles, coarse wrinkles, roughness, mottled hyperpigmentation, and other parameters using a five-point scale (0=None; 1=Minimal; 2=Mild; 3=Moderate; and 4=Severe). The overall severity of skin photodamage (wrinkles, roughness and mottled hyperpigmentation) was evaluated using a 10 point scale (0=None; 1-3=Mild; 4-6=Moderate; and 7-9=Severe); subjects with baseline severity scores greater than 6 were excluded from the study.
On each subsequent visit, the investigator evaluated overall improvement compared to baseline using a 6-point scale (1=excellent improvement; 2=marked improvement; 3=moderate improvement; 4=slight improvement; 5=no improvement; and 6=worse).
At each subsequent visit, the subjects were asked to complete a self-assessment questionnaire to assess the improvement from baseline for skin texture, skin color, blotchiness (i.e., brown spots), fine wrinkles; and overall improvement using a five-point scale (1=much improved; 2=somewhat improved; 3=no change; 4=somewhat worse; and 5=much worse).
This Example compares the clinical data for topically applied 6-furfurylamino-9-(2-tetrahydropyranyl)purine (0.10%) taken from Example 23 with similar clinical data generated for topically applied kinetin (0.1%) from an earlier study. […]

[1] = Eight Week Data, self assessment
[2] = Twelve Week Data, self assessment
[3] = Week 2, investigator, five-point scale 0=None to 4=Severe
[4] = Week 2, subjects' self assessment, five-point scale 1=much improved to 5=much worse
[5] = Week 4, investigator, five-point scale 0=None to 4=Severe
[6] = Week 4, subjects' self assessment, five-point scale 1=much improved to 5=much worse
[7] = Week 8, investigator, five-point scale 0=None to 4=Severe
[8] = Week 8, subjects' self assessment, five-point scale 1=much improved to 5=much worse
[9] = Week 12, investigator, five-point scale 0=None to 4=Severe
[10] = Week 12, subjects' self assessment, five-point scale 1=much improved to 5=much worse

**Q.** Which results are given for c1coc(CNc2ncnc3c2ncn3C2CCCCO2)c1 (centres unmarked) [6-furfurylamino-9-(2-tetrahydropyranyl)purine]?
**A.** overall skin condition, change relative to baseline (2 weeks): −1.22%; investigator's assessment of overall improvement in skin condition (relative to baseline) (2 weeks): 4.95; investigator's assessment of overall skin condition (2 weeks): 4.05; overall improvement, change relative to 2 week data (4 weeks): −10.61%; overall skin condition, change relative to baseline (4 weeks): −15.23%; investigator's assessment of overall improvement in skin condition (relative to baseline) (4 weeks): 4.44; investigator's assessment of overall skin condition (4 weeks): 3.56; overall improvement, change relative to 2 week data (8 weeks): −16.67%; overall skin condition, change relative to baseline (8 weeks): −24.32%; investigator's assessment of overall improvement in skin condition (relative to baseline) (8 weeks): 4.11; investigator's assessment of overall skin condition (8 weeks): 3.20; overall improvement, change relative to 2 week data (12 weeks): −17.16%; overall skin condition, change relative to baseline (12 weeks): −27.97%; investigator's assessment of overall improvement in skin condition (relative to baseline) (12 weeks): 4.12; investigator's assessment of overall skin condition (12 weeks): 3.03; Mean Improvement from Baseline: TEWL (Eight Week Data): 1%; Mean Improvement from Baseline: Coarse Wrinkles (Eight Week Data): 7%; Mean Improvement from Baseline: Fine Wrinkles (Eight Week Data): 22%*; Mean Improvement from Baseline: Mottled Hyperpigmentation (Eight Week Data): 31%*; Mean Improvement from Baseline: Overall Skin Condition (Eight Week Data): 24%*; Mean Improvement from Baseline: Roughness (Eight Week Data): 86%*; Subjects Reporting Improvement from Baseline: Blotchiness [1]: 60%; Subjects Reporting Improvement from Baseline: Color [1]: 66%; Subjects Reporting Improvement from Baseline: Fine Wrinkles [1]: 83%; Subjects Reporting Improvement from Baseline: Texture [1]: 83%; Mean Improvement from Baseline: TEWL (Twelve Week Data): 28%; Mean Improvement from Baseline: Coarse Wrinkles (Twelve Week Data): 14%*; Mean Improvement from Baseline: Fine Wrinkles (Twelve Week Data): 28%*; Mean Improvement from Baseline: Mottled Hyperpigmentation (Twelve Week Data): 41%*; Mean Improvement from Baseline: Overall Skin Condition (Twelve Week Data): 28%*; Mean Improvement from Baseline: Roughness (Twelve Week Data): 84%*; Subjects Reporting Improvement from Baseline: Blotchiness [2]: 63%; Subjects Reporting Improvement from Baseline: Color [2]: 68%; Subjects Reporting Improvement from Baseline: Fine Wrinkles [2]: 88%; Subjects Reporting Improvement from Baseline: Texture [2]: 88%; Acne Change Relative to Baseline (Week 2): −4.00%; Coarse Wrinkles Change Relative to Baseline (Week 2): 4.44%; Erythema Change Relative to Baseline (Week 2): −33.33%; Mottled Hyperpigmentation Change Relative to Baseline (Week 2): −1.45%; Roughness Change Relative to Baseline (Week 2): −37.31%; Skin Irritation Change Relative to Baseline (Week 2): 0; Skin Moisture Change Relative to Baseline (Week 2): 6.22%; TEWL Change Relative to Baseline (Week 2): −1.98%; Skin Moisture (Week 2): 125.37* arbitrary units; TEWL (Week 2): 12.89 g/m^2/hr; Fine Wrinkles Change Relative to Baseline (Week 2, investigator): −1.28%; Acne [3]: 0.60; Coarse Wrinkles [3]: 2.35; Erythema [3]: 0.40^††; Fine Wrinkles [3]: 2.18; Mottled Hyperpigmentation [3]: 1.70; Roughness [3]: 1.05*; Skin Irritation [3]: 0; Blotchiness/Brown Spots [4]: 2.70; Fine Wrinkles [4]: 2.62; Overall Improvement [4]: 2.36; Skin Color [4]: 2.74; Skin Texture [4]: 2.21; Acne Change Relative to Baseline (Week 4): −13.64%; Coarse Wrinkles Change Relative to Baseline (Week 4): −4.76%; Erythema Change Relative to Baseline (Week 4): −47.62%; Mottled Hyperpigmentation Change Relative to Baseline (Week 4): −15.63%; Roughness Change Relative to Baseline (Week 4): −63.79%; Skin Irritation Change Relative to Baseline (Week 4): 0; Skin Moisture Change Relative to Baseline (Week 4): 20.96%; TEWL Change Relative to Baseline (Week 4): −9.62%; Skin Moisture (Week 4): 141.30* arbitrary units; TEWL (Week 4): 11.70* g/m^2/hr; Fine Wrinkles Change Relative to Baseline (Week 4, investigator): −11.25%; Acne [5]: 0.53; Coarse Wrinkles [5]: 2.22; Erythema [5]: 0.31*; Fine Wrinkles [5]: 1.97*; Mottled Hyperpigmentation [5]: 1.50*; Roughness [5]: 0.58*; Skin Irritation [5]: 0; Blotchiness/Brown Spots Change Relative to 2 Week Data (Week 4, self assessment): −6.19%; Fine Wrinkles Change Relative to 2 Week Data (Week 4, self assessment): −18.68%; Skin Color Change Relative to 2 Week Data (Week 4, self assessment): −5.32%; Skin Texture Change Relative to 2 Week Data (Week 4, self assessment): −8.97%; overall improvement, change relative to 2 week data (Week 4, self assessment): −6.17%; Blotchiness/Brown Spots [6]: 2.58; Fine Wrinkles [6]: 2.11*; Overall Improvement [6]: 2.14; Skin Color [6]: 2.50*; Skin Texture [6]: 2.03*; Acne Change Relative to Baseline (Week 8): −9.52%; Coarse Wrinkles Change Relative to Baseline (Week 8): −7.23%; Erythema Change Relative to Baseline (Week 8): −66.67%; Mottled Hyperpigmentation Change Relative to Baseline (Week 8): −30.65%; Roughness Change Relative to Baseline (Week 8): −85.71%; Skin Irritation Change Relative to Baseline (Week 8): 0; Skin Moisture Change Relative to Baseline (Week 8): 35.10%; TEWL Change Relative to Baseline (Week 8): 0.11%; Skin Moisture (Week 8): 158.04* arbitrary units; TEWL (Week 8): 13.08 g/m^2/hr; Fine Wrinkles Change Relative to Baseline (Week 8, investigator): −21.79%; Acne [7]: 0.53; Coarse Wrinkles [7]: 2.20; Erythema [7]: 0.20*; Fine Wrinkles [7]: 1.74*; Mottled Hyperpigmentation [7]: 1.23*; Roughness [7]: 0.23*; Skin Irritation [7]: 0; Blotchiness/Brown Spots Change Relative to 2 Week Data (Week 8, self assessment): −18.95%; Fine Wrinkles Change Relative to 2 Week Data (Week 8, self assessment): −23.60%; Skin Color Change Relative to 2 Week Data (Week 8, self assessment): −18.28%; Skin Texture Change Relative to 2 Week Data (Week 8, self assessment): −15.58%; overall improvement, change relative to 2 week data (Week 8, self assessment): −16.25%; Blotchiness/Brown Spots [8]: 2.26*; Fine Wrinkles [8]: 2.00*; Overall Improvement [8]: 1.97*; Skin Color [8]: 2.23*; Skin Texture [8]: 1.91*; Acne Change Relative to Baseline (Week 12): −45.00%; Coarse Wrinkles Change Relative to Baseline (Week 12): −13.75%; Erythema Change Relative to Baseline (Week 12): −66.67%%; Mottled Hyperpigmentation Change Relative to Baseline (Week 12): −40.68%; Roughness Change Relative to Baseline (Week 12): −83.64%; Skin Irritation Change Relative to Baseline (Week 12): 0; Skin Moisture Change Relative to Baseline (Week 12): 41.21%; TEWL Change Relative to Baseline (Week 12): −27.79%; Skin Moisture (Week 12): 165.42* arbitrary units; TEWL (Week 12): 9.54* g/m^2/hr; Fine Wrinkles Change Relative to Baseline (Week 12, investigator): −27.63%; Acne [9]: 0.32*; Coarse Wrinkles [9]: 2.03*; Erythema [9]: 0.21*; Fine Wrinkles [9]: 1.62*; Mottled Hyperpigmentation [9]: 1.03*; Roughness [9]: 0.26*; Skin Irritation [9]: 0; Blotchiness/Brown Spots Change Relative to 2 Week Data (Week 12, self assessment): −23.16%; Fine Wrinkles Change Relative to 2 Week Data (Week 12, self assessment): −28.09%; Skin Color Change Relative to 2 Week Data (Week 12, self assessment): −22.58%; Skin Texture Change Relative to 2 Week Data (Week 12, self assessment): −23.38%; overall improvement, change relative to 2 week data (Week 12, self assessment): −18.75%; Blotchiness/Brown Spots [10]: 2.15*; Fine Wrinkles [10]: 1.88*; Overall Improvement [10]: 1.91*; Skin Color [10]: 2.12*; Skin Texture [10]: 1.74*; Skin irritation or other adverse effects (over the 12 week study period): not observed

Source: US20130072505A1, “6,9-Disubstituted Purine Derivatives and Their Use for Treating Skin” (priority 2006, published 2013)
